According to patent US20050209256A1, “Novel beta-turn mimetics as calcitonin gene related peptide receptor antagonists” (priority 2004, published 2005):

target: T1, human CGRP receptor (Homo sapiens, UniProt O60894+Q16602); assay: Radioligand binding assay, [125I]-CGRP competition on SK-N-MC cell homogenates; settings: Binding data, [125I]-CGRP 40 pM, room temperature
T1 construct: SK-N-MC cells that endogenously express the human CGRP receptor; endogenous in cells; host or cells: SK-N-MC cells (membrane homogenates)
Protocol: Tissue culture. SK-N-MC cells were grown at 37° C. in 5% CO2 as a monolayer in medium consisting of MEM with Earle's salts and L-glutamine (Gibco) supplemented with 10% fetal bovine serum (Gibco).
Radioligand binding assays. Cells were rinsed twice with phosphate-buffered saline (155 mM NaCl, 3.3 mM Na2HPO4, 1.1 mM KH2PO4, pH 7.4), and incubated for 5-10 min. at 4° C. in hypotonic lysis buffer consisting of 10 mM Tris (pH 7.4) and 5 mM EDTA. Cells were transferred from plates to polypropylene tubes (16×100 mm), homogenized and centrifuged at 32,000×g for 30 min. Pellets were resuspended in buffer consisting of 50 mM Tris (pH 7.4) and 1 mM EDTA, homogenized, and centrifuged again at 32,000×g for 30 min. Pellets were resuspended in 100 mM Tris-Cl pH 7.5, 10 mM MgCl2, 0.1% mammalian protease inhibitor cocktail (Sigma) and stored at −80° C. until needed. On the day of an experiment, homogenates were thawed and homogenized again. Binding of [^125I]-CGRP (NEN) was carried out in buffer containing 50 mM Tris-Cl pH 7.5, 5 mM MgCl2, 0.5% BSA. Homogenates (3.5 μg protein/well) were incubated with competitor compounds (solubilized in 100% DMSO at 100× their final assay concentrations) for one hour at room temperature. Then [^125I]-CGRP was added (40 pM final concentration) and the reaction incubated for one additional hour at room temperature. Assays were stopped by addition of cold wash buffer (20 mM Tris-Cl pH 7.5, 0.1% BSA) immediately followed by filtration over glass fiber filters (Whatman GF/B) previously soaked in 0.5% PEI. Non-specific binding was defined with 100 nM CGRP.

SMILES | IC50
CC(=O)c1ccc(NC(=O)N2CCC(=O)N3[C@@H]2CN(CCc2cccc(F)c2)C(=O)[C@@H]3Cc2ccc(OCc3ccccc3)cc2)cc1 [Compound 33, (6S,9aS)-6-(4-Benzyloxy-benzyl)-8-[2-(3-fluoro-phenyl)-ethyl]-4,7-dioxo-hexahydro-pyrazino[1,2-a]pyrimidine-1-carboxylic acid (4-acetyl-phenyl)-amide] | 2.26 µM
CC(=O)c1ccc(NC(=O)N2CCC(=O)N3[C@@H]2CN(CCc2cccc(F)c2)C(=O)[C@@H]3Cc2cc(Br)c(O)c(Br)c2)cc1 [Compound 34, (6S,9aS)-6-(3,5-Dibromo-4-hydroxy-benzyl)-8-[2-(3-fluoro-phenyl)-ethyl]-4,7-dioxo-hexahydro-pyrazino[1,2-a]pyrimidine-1-carboxylic acid (4-acetyl-phenyl)-amide] | 1.17 µM
CC(=O)c1ccc(NC(=O)N2CCC(=O)N3[C@@H]2CN(CCc2cccc(F)c2)C(=O)[C@@H]3CCS(C)(=O)=O)cc1 [Compound 36, (6S,9aS)-8-[2-(3-Fluoro-phenyl)-ethyl]-6-(2-methanesulfonyl-ethyl)-4,7-dioxo-hexahydro-pyrazino[1,2-a]pyrimidine-1-carboxylic acid (4-acetyl-phenyl)-amide] | 0.35 µM
CC[C@@H](C)[C@H]1C(=O)N(CCc2cccc(F)c2)C[C@@H]2N(C(=O)Nc3ccc(C(C)=O)cc3)CCC(=O)N12 [Compound 39, (6S,9aS)-6-(1R-methyl-propyl)-8-[2-(3-fluoro-phenyl)-ethyl]--4,7-dioxo-hexahydro-pyrazino[1,2-a]pyrimidine-1-carboxylic acid (4-acetyl-phenyl)-amide] | 0.233 µM
CC(=O)c1ccc(NC(=O)N2CCC(=O)N3[C@@H]2CN(CCc2cccc(F)c2)C(=O)[C@@H]3CCC(N)=O)cc1 [Compound 40, (6S,9aS)-6-(2-Carbamoyl-ethyl)-8-[2-(3-fluoro-phenyl)-ethyl]-4,7-dioxo-hexahydro-pyrazino[1,2-a]pyrimidine-1-carboxylic acid (4-acetyl-phenyl)-amide] | 2.36 µM
CC(=O)c1ccc(NC(=O)N2CCC(=O)N3[C@@H](C4CCNCC4)C(=O)N(CCc4cccc(F)c4)C[C@H]23)cc1 [Compound 43, (6S,9aS)-8-[2-(3-Fluoro-phenyl)-ethyl]-4,7-dioxo-6-piperidin-4-yl-hexahydro-pyrazino[1,2-a]pyrimidine-1-carboxylic acid (4-acetyl-phenyl)-amide] | 4 µM
CC(=O)c1ccc(NC(=O)N2CCC(=O)N3[C@@H](C4CCCCC4)C(=O)N(CCc4cccc(F)c4)C[C@H]23)cc1 [Compound 48, (6S,9aS)-6-Cyclohexyl-8-[2-(3-fluoro-phenyl)-ethyl]-4,7-dioxo-hexahydro-pyrazino[1,2-a]pyrimidine-1-carboxylic acid (4-acetyl-phenyl)-amide] | 0.115 µM
CC(=O)c1ccc(NC(=O)N2CCC(=O)N3[C@@H](C4CCOCC4)C(=O)N(CCc4cccc(F)c4)C[C@H]23)cc1 [Compound 52, (6S,9aS)-8-[2-(3-Fluoro-phenyl)-ethyl]-4,7-dioxo-6-(tetrahydro-pyran-4-yl)-hexahydro-pyrazino[1,2-a]pyrimidine-1-carboxylic acid (4-acetyl-phenyl)-amide] | 0.358 µM
CC(=O)c1ccc(NC(=O)N2c3cc4ccccc4cc3C(=O)N3[C@@H](C4CCOCC4)C(=O)N(CCc4cccc(F)c4)C[C@H]23)cc1 [Compound 53, (4S,12S)-2-[2-(3-Fluoro-phenyl)-ethyl]-3,5-dioxo-4-(tetrahydro-pyran-4-yl)-1,3,4,12a-tetrahydro-2H,5H-2,4a,12-triaza-naphthacene-12-carboxylic acid (4-acetyl-phenyl)-amide] | 2.97 µM
CC(=O)c1ccc(NC(=O)N2CCC(=O)N3[C@@H]2CN(CCc2cccc(F)c2)C(=O)[C@@H]3Cc2cncn2C)cc1 [Compound 54, (6S,9aS)-8-[2-(3-Fluoro-phenyl)-ethyl]-6-(3-methyl-3H-imidazol-4-ylmethyl)-4,7-dioxo-hexahydro-pyrazino[1,2-a]pyrimidine-1-carboxylic acid (4-acetyl-phenyl)-amide] | 1.27 µM
CC(=O)c1ccc(NC(=O)N2CCC(=O)N3[C@@H]2CN(CCc2cccc(F)c2)C(=O)[C@@H]3Cc2cc(F)cc(F)c2)cc1 [Compound 55, (6S,9aS)-6-(3,5-Difluoro-benzyl)-8-[2-(3-fluoro-phenyl)-ethyl]-4,7-dioxo-hexahydro-pyrazino[1,2-a]pyrimidine-1-carboxylic acid (4-acetyl-phenyl)-amide] | 0.4 µM
CC(=O)c1ccc(NC(=O)N2CCC(=O)N3[C@@H]2CN(CCc2cccc(F)c2)C(=O)[C@@H]3Cc2cc(F)c(F)c(F)c2)cc1 [Compound 56, (6S,9aS)-8-[2-(3-Fluoro-phenyl)-ethyl]-4,7-dioxo-6-(3,4,5-trifluoro-benzyl)-hexahydro-pyrazino[1,2-a]pyrimidine-1-carboxylic acid (4-acetyl-phenyl)-amide] | 0.665 µM
CC(=O)c1ccc(NC(=O)N2CCC(=O)N3[C@@H]2CN(CCc2cccc(F)c2)C(=O)[C@@H]3Cc2c(F)c(F)c(F)c(F)c2F)cc1 [Compound 57, (6S,9aS)-8-[2-(3-Fluoro-phenyl)-ethyl]-4,7-dioxo-6-pentafluorophenylmethyl-hexahydro-pyrazino [1,2a]pyrimidine-1-carboxylic acid (4-acetyl-phenyl)-amide] | 0.5 µM
CC(=O)c1ccc(NC(=O)N2CCC(=O)N3[C@@H]2CN(CCc2ccccc2)C(=O)[C@@H]3CC2CCCCC2)cc1 [Compound 65, (6S,9aS)-6-Cyclohexylmethyl-4,7-dioxo-8-phenethyl-hexahydro-pyrazino[1,2-a]pyrimidine-1-carboxylic acid (4-acetyl-phenyl)-amide] | 0.517 µM
NC(=O)c1ccc(NC(=O)N2CCC(=O)N3[C@@H]2CN(CCc2ccccc2)C(=O)[C@@H]3CC2CCCCC2)cc1 [Compound 111, (6S,9aS)-6-Cyclohexylmethyl-4,7-dioxo-8-phenethyl-hexahydro-pyrazino[1,2-a]pyrimidine-1-carboxylic acid (4-carbamoyl-phenyl)-amide] | 12 µM

The next lines start with the values.

IC50 | SMILES
0.598 µM | CC(=O)c1ccc(NC(=O)N2CCC(=O)N3[C@@H]2CN(CCc2cccc(F)c2)C(=O)[C@@H]3COCc2ccccc2)cc1 [Compound 32, (6S,9aS)-6-Benzyloxymethyl-8-[2-(3-fluoro-phenyl)-ethyl]-4,7-dioxo-hexahydro-pyrazino[1,2-a]pyrimidine-1-carboxylic acid (4-acetyl-phenyl)-amide]
0.167 µM | CC(=O)c1ccc(NC(=O)N2CCC(=O)N3[C@@H](c4ccccc4)C(=O)N(CCc4cccc(F)c4)C[C@H]23)cc1 [Compound 46, (6S,9aS)-8-[2-(3-Fluoro-phenyl)-ethyl]-4,7-dioxo-6-phenyl-hexahydro-pyrazino[1,2-a]pyrimidine-1-carboxylic acid (4-acetyl-phenyl)-amide]
0.814 µM | CC(=O)c1ccc(NC(=O)N2CCC(=O)N3[C@@H]2CN(CCc2cccc(F)c2)C(=O)[C@@H]3Cc2ccc(F)cc2)cc1 [Compound 58, (6S,9aS)-6-(4-Fluoro-benzyl)-8-[2-(3-fluoro-phenyl)-ethyl]-4,7-dioxo-hexahydro-pyrazino[1,2-a]pyrimidine-1-carboxylic acid (4-acetyl-phenyl)-amide]
0.271 µM | CC(=O)c1ccc(NC(=O)N2CCC(=O)N3[C@@H](c4ccc(F)c(F)c4)C(=O)N(CCc4ccccc4)C[C@H]23)cc1 [Compound 59, (6S,9aS)-6-(3,4-Difluoro-phenyl)-4,7-dioxo-8-phenethyl-hexahydro-pyrazino[1,2-a]pyrimidine-1-carboxylic acid (4-acetyl-phenyl)-amide]
0.624 µM | CC(=O)c1ccc(NC(=O)N2CCC(=O)N3[C@@H]2CN(CCc2cccc(F)c2)C(=O)[C@@H]3Cc2ccc(F)c(F)c2)cc1 [Compound 62, (6S,9aS)-6-(3,4-Difluoro-benzyl)-8-[2-(3-fluoro-phenyl)-ethyl]-4,7-dioxo-hexahydro-pyrazino[1,2-a]pyrimidine-1-carboxylic acid (4-acetyl-phenyl)-amide]
3.04 µM | CC(=O)c1ccc(NC(=O)N2CCC(=O)N3[C@@H]2CN(CCc2ccccc2)C(=O)[C@@H]3Cc2ccc(F)c(F)c2)cc1 [Compound 63, (6S,9aS)-6-(3,4-Difluoro-benzyl)-4,7-dioxo-8-phenethyl-hexahydro-pyrazino[1,2-a]pyrimidine-1-carboxylic acid (4-acetyl-phenyl)-amide]
0.473 µM | CC(=O)c1ccc(NC(=O)N2CCC(=O)N3[C@@H](c4ccccc4)C(=O)N(CCc4ccccc4)C[C@H]23)cc1 [Compound 64, (6S,9aS)-4,7-Dioxo-8-phenethyl-6-phenyl-hexahydro-pyrazino[1,2-a]pyrimidine-1-carboxylic acid (4-acetyl-phenyl)-amide]
